Legend:
[1] = test system: GA-deficient (Line 719, R5) soybeans; assay: Hilum treatment with GA15, GA19, GA24, GA44, hypocotyl length, GA-deficient soybean; format: in vivo, Glycine max; conditions: 10 μg/seed, 5 DAP
Text: Transgenic seeds are fifth generation (R5) line 719 seeds.

[2] = test system: wild-type A3237 soybean; assay: Hilum treatment of soybean seeds, seedling growth and development, wild-type soybean; format: in vivo, Glycine max; set-up: key to Emergence timing / Hypocotyl length (6 DAP) / 1st internode length (12 DAP) / 3rd internode length (20 DAP): pos: emergence faster/stem segment longer than controls; 0: emergence timing/stem segment length similar to controls; neg: emergence slower/stem segment shorter than controls; conditions: for Lowest rate where biological activity is observed, 1st internode length (10 DAP) / Lowest rate where biological activity is observed, emergence timing / Lowest rate where biological activity is observed, hypocotyl length (5 DAP): rate response; for 1st internode length (12 DAP) / Emergence timing / Hypocotyl length (6 DAP): single rate per compound 8.3-16.5 μg/seed
Method: (§1) In the previous experiments, the effect of various GA compounds on transgenic, GA-deficient and wild-type soybean is evaluated by treating seeds with these compounds via imbibition. Several of these compounds are not completely soluble in water, which limited the interpretation of their utility in rescuing GA-deficient dwarf plants. The purpose of this experiment is to reevaluate selected, previously tested compounds, and additional compounds, by introducing them to the seed via the hilum. As shown by the results presented below, direct application of small quantities of GA compounds dissolved in an organic solvent to the hilum is an effective method of treating soybean seeds. As in the previously described experiments, comparison is made between activity on GA-deficient soybean seedlings and normal (wild-type) seedlings. […] soybean seeds are supplied by Asgrow Seed Company (Des Moines, Iowa). Seed of GA-deficient transgenic soybean line 719 is created by transformation of […] soybean with pMON29801 (FMV/antisense CPScc). Fifth generation seed (R5) is used for these experiments. […] When multiple droplets are applied, each 1 μl droplet is allowed to dry before subsequent droplets are added. Ethanol minus compound is used a treatment control. […] (29° C.) and 75° F. (24° C.), respectively. Emergence timing is measured by counting the number of emerged seedlings at different times after planting. Emergence is defined as the presence of cotyledons raised to soil level or above. […] To assess the ability of a seed treatment to deliver biological activity beyond the first internode, measurements are taken on selected treatments after prolonged growth and development.

[3] = test system: GA-deficient transgenic soybean line 719 (R5); assay: Hilum treatment of soybean seeds, seedling growth and development, GA-deficient soybean; format: in vivo, Glycine max; set-up: key to Emergence timing / Hypocotyl length (6 DAP) / 1st internode length (12 DAP) / 3rd internode length (20 DAP) / 2nd internode length (12 DAP): pos: emergence faster/stem segment longer than controls; 0: emergence timing/stem segment length similar to controls; neg: emergence slower/stem segment shorter than controls; conditions: for Lowest rate where biological activity is observed, 1st internode length (10 DAP) / Lowest rate where biological activity is observed, emergence timing / Lowest rate where biological activity is observed, hypocotyl length (5 DAP) / 1st internode length (12 DAP) / Emergence timing / Hypocotyl length (6 DAP): L719, hilum treatment; for Lowest rate where biological activity is observed, 1st internode length (10 DAP) / Lowest rate where biological activity is observed, emergence timing / Lowest rate where biological activity is observed, hypocotyl length (5 DAP): rate response; for 1st internode length (12 DAP) / Emergence timing / Hypocotyl length (6 DAP): single rate per compound 8.3-16.5 μg/seed; for activity on line 719 in terms of emergence timing and hypocotyl length: single rate, hilum, concentration that does not affect normal plant tissue
Method: as §1

[4] = test system: constitutively GA-deficient transgenic dwarf soybeans (line 719); assay: Summary of first two greenhouse experiments, rescue of GA-deficient soybeans; format: in vivo, Glycine max; set-up: key: +: transgenic soybeans are rescued; 0: transgenic soybeans are not rescued; conditions: 0.25 mg/ml solution (ethanol-water)
Method: (§2) Compounds are first prepared as 25 mg/ml solutions in ethanol as described above, and then diluted into 40 ml of water to prepare the final 0.25 mg/ml treatment solutions. Visual observations on solubilities (milky, clear, etc.) of the treatment solutions are noted. The treatment solutions are divided into two 20 ml portions, each in 50 ml plastic centrifuge tubes. In addition to treating seeds with solutions containing the test compounds, untreated seeds and seeds imbibed in ethanol-water solution (300 μl ethanol in 30 mls of water) are also included in this experiment as controls. In the latter case, 20 seeds are imbibed in 30 mls of solution for six hours.
(§3) Two soybean varieties are selected for testing: constitutively GA-deficient transgenic dwarf soybean line 719 (plasmid pMON29801, constitutive FMV promoter/asCPScc; which is a mixture of 719−2 and 719+17), and A3237, the wild-type parent material. […] After imbibition, seeds are removed from the test tubes, placed on wax paper to dry, and planted in bread pans containing farm soil amended with fertilizer at 20 seeds/pan. Seeds are covered with 0.5″ of vermiculite. Pans are transferred to the greenhouse, which had day/night temperatures of 86/68° F. (30/20° C.), and subirrigated. Illumination is at a light intensity of 300-400 μmolm^−2s^−1 photosynthetic photon flux; 16 hours light/8 hours dark. Subsequent waterings are also through sub-irrigation until the test is terminated three weeks later. Observations included the number of dwarf, intermediate, and tall plants; plant height; uniformity of rescue; and any visual effects.
(§4) All compounds are tested at final concentrations of 0.25, 0.025, and 0.0025 mg/ml except for GA9, which is tested at 0.125, 0.0125, and 0.00125 mg/ml. (The compounds are tested in Experiment I at only one concentration, i.e., 0.25 mg/ml). Test tubes contained […] of ethanol solution per tube. Final volumes are made up to 30 ml with deionized water. After shaking, the treatment solutions (15 ml each) are transferred to each of two 50 ml test tubes. Treatments 1 to 27 are performed on wild-type line A3237; treatments 28 to 54 are performed on constitutively GA-deficient transgenic dwarf soybean line 719 (a mixture of 719−2 and 719+17). Twenty seeds are used in each treatment. Dry seed, ethanol/water-imbibed seed (1% ethanol in water, v/v), and water-imbibed seeds are included as controls. Seeds are imbibed for 6 hours in the test solutions, then planted in bread pans containing Metromix 350 (The Scotts Company, Marysville, Ohio), and covered with 0.5″ Metro-mix. Covered pans are transferred to the greenhouse and subirrigated. Illumination is at a light intensity of 300-400 μmolm^−2s^−1 photosynthetic photon flux; 16 hours light/8 hours dark. Subsequent waterings are also through sub-irrigation until the test is terminated three weeks later. Observations included the number of dwarf, intermediate, and tall plants; plant height; uniformity of rescue; and any visual effects. Digital photographs are also taken.

[5] = test system: constitutively GA-deficient transgenic dwarf soybean line 719; assay: Experiment I greenhouse test, seed imbibition, GA-deficient soybean; format: in vivo, Glycine max; set-up: Observation on Transgenic Line 719: key: −1: treated plants are shorter as compared to untreated plants; 0: treated plants had the same stature as untreated plants; 1: treated plants are slightly elongated as compared to untreated plants; 2: treated plants are moderately elongated as compared to untreated plants; 3: treated plants are highly elongated as compared to untreated plants; 4: treated plants are extremely elongated as compared to untreated plants; conditions: 0.25 mg/ml; for effect in both the constitutive transgenic dwarf and wild-type soybean lines: imbibition, lines 719 and A3237; for Observation on Transgenic Line 719: seeds imbibed 5 hours
Text: Seeds are covered with 0.5″ of vermiculite.

[6] = test system: wild-type soybean line A3237; assay: Experiment I greenhouse test, seed imbibition, wild-type soybean; conditions: 0.25 mg/ml; seeds imbibed 5 hours
Method: as §2, with “In the latter case, 20 seeds are imbibed in 30 mls of solution for six hours.” left out
After imbibition, seeds are removed from the test tubes, placed on wax paper to dry, and planted in bread pans containing farm soil amended with fertilizer at 20 seeds/pan. Seeds are covered with 0.5″ of vermiculite. Pans are transferred to the greenhouse, which had day/night temperatures of 86/68° F. (30/20° C.), and subirrigated. Illumination is at a light intensity of 300-400 μmolm^−2s^−1 photosynthetic photon flux; 16 hours light/8 hours dark. Subsequent waterings are also through sub-irrigation until the test is terminated three weeks later. Observations included the number of dwarf, intermediate, and tall plants; plant height; uniformity of rescue; and any visual effects.

[7] = Particulate material present in solutions after mixing; format: physicochemical; conditions: for Particulate material present, 100X Diln w/water: 0.25 mg/ml compound in water; for solubility in water during imbibition: 0.25 mg/ml treatment solutions; for Particulate material present, Initial Mixing: 25 mg/ml in absolute ethanol
Method: Each of the compounds noted above is weighed to the nearest 0.1 mg in a pre-tarred 1.5-ml polypropylene vial with a screw-top lid. Absolute ethanol is added to the weighed powder to prepare a 25 mg/ml solution. Solutions are thoroughly mixed using a vortex mixer. A stainless steel spatula is used to crush any particulate material remaining after extensive mixing. Vials are left overnight at room temperature, and then remixed to form the concentrated ethanol stock solutions. The presence of undissolved material is noted throughout this procedure.

[8] = test system: A3237 soybean; assay: Stature of soybean plants with ancymidol soil drench; format: in vivo, Glycine max
Method: R1 lines are also evaluated for stature reduction, a key indicator of GA-deficiency in soybean. R1 seeds are grown as described above. Plant height is routinely measured at approximately one week after planting. Four lines (696, 719, 720 and 724) are identified that had overall stature reduction relative to the control (A3237) line and the control line plus ancymidol (10 mg/L), an inhibitor of GA (Table 3). As these are segregating from R1 seeds, the distribution stature of the plants is evaluated. Three lines (719, 720 and 724) have a population of strong dwarf soybean plants (<25% the height of the average control plant). The segregation ratio of R1 pMON29801 (FMV/asCPScc) (FIG. 7) soybean plants is checked by phenotype (stature) and for the expression of CP4 5-enolpyruvylshikimate-3-phosphate synthase by ELISA (Rogan et al., J. Food Control, in Press (1998)). The results for both of these analyses are fairly consistent (Table 4): Line 696 segregated at about 1:3, line 719 at about 1:2, line 720 at about 2:1 and line 724 at about 3:1. Thus, only line 724 is what could be considered normal Mendelian segregation.
In soybean, GAs increase through mid-seed development, and then decline as the seed matures (Birnberg et al. (1986) Plant Physiol. 82:241-246). This trend is similar to that observed in other legumes. […] This is supported by the following observations (data not shown). […] This is well after germination and axis elongation have begun. Both of these observations support the hypothesis that soybean seed germination and early axis elongation are not dependent on de novo gibberellin biosynthesis.

[9] = test system: wild-type soybeans (line A3237); assay: Summary of first two greenhouse experiments, elongation of wild-type soybeans; conditions: 0.25 mg/ml solution (ethanol-water)
Method: as §2, §3, §4

Molecule	hypocotyl height of GA-deficient (Line 719) soybeans (FIG. 41) [1]	Lowest rate where biological activity is observed, 1st internode length (10 DAP) [2]	Lowest rate where biological activity is observed, emergence timing [2]	Lowest rate where biological activity is observed, hypocotyl length (5 DAP) [2]	1st internode length (12 DAP) [2]	Emergence timing [2]	Hypocotyl length (6 DAP) [2]	Lowest rate where biological activity is observed, 1st internode length (10 DAP) [3]	Lowest rate where biological activity is observed, emergence timing [3]	Lowest rate where biological activity is observed, hypocotyl length (5 DAP) [3]	1st internode length (12 DAP) [3]	Emergence timing [3]	Hypocotyl length (6 DAP) [3]	activity on line 719 in terms of emergence timing and hypocotyl length [3]	Rescue of GA-deficient soybeans [4]	effect in both the constitutive transgenic dwarf and wild-type soybean lines [5]	Observation on Transgenic Line 719 [5]	Observation on Wild-Type Line A3237 [6]	Particulate material present, 100X Diln w/water [7]	solubility in water during imbibition [7]	also measured
C=C1C[C@]23C[C@H]1CC[C@H]2[C@]1(C=O)CCC[C@@](C)(C(=O)O)[C@H]1[C@@H]3C(=O)O [GA24]	restored normal or greater hypocotyl height	–	–	–	–	–	–	–	–	–	–	–	–	–	–	–	–	–	–	–	–
GA15	restored normal or greater hypocotyl height	–	–	–	–	–	–	–	–	–	–	–	–	–	–	–	–	–	–	–	–
C=C1C[C@@]23CC[C@H]4[C@@](C)(CCC[C@@]4(C)C(=O)O)[C@@H]2CC[C@]1(O)C3 (single isomer, unassigned; ent-7) [steviol]	–	>100 μg/seed	>100 μg/seed	>100 μg/seed	0	0	0	>100 μg/seed	10 μg/seed	1 μg/seed	0	pos	pos	biologically active	0	no substantial activity	0	0	YES	less soluble in water during imbibition	Particulate material present, Initial Mixing [7]: YES
C=C1C[C@]23C[C@H]1CC[C@H]2[C@]1(C)CCC[C@@](C)(C(=O)O)[C@H]1[C@@H]3C=O [GA12-aldehyde]	–	>100 μg/seed	>100 μg/seed	>100 μg/seed	0	0	0	>100 μg/seed	1 μg/seed	1 μg/seed	0	pos	pos	biologically active	0	no substantial activity	0	0	YES	less soluble in water during imbibition	–
COc1ccc(C(O)(c2cncnc2)C2CC2)cc1 (centres unmarked) [ancymidol]	–	–	–	–	–	–	–	–	–	–	–	–	–	–	–	–	–	–	–	–	Height (% of control) ([8]; 7 DAP, ancymidol 10 mg/L): 14 % of control; Frequency of heights relative to A3237 control (%), 0-25% ([8]; ancymidol soil drench 10 mg/L): 100%; Frequency of heights relative to A3237 control (%), 25-50% ([8]; ancymidol soil drench 10 mg/L): 0%; Frequency of heights relative to A3237 control (%), 50-75% ([8]; ancymidol soil drench 10 mg/L): 0%; Frequency of heights relative to A3237 control (%), 75-100% ([8]; ancymidol soil drench 10 mg/L): 0%; soybean axis elongation ([8]; first one to two days of growth, data not shown): does not reduce soybean axis elongation
C=C1C[C@@]23CC[C@@H]4C(C)(C)CCC[C@@]4(C)[C@@H]2CC[C@@H]1C3 [kaurene]	–	–	–	–	0	0	0	–	–	–	0	pos	0	–	0	no substantial activity	0	0	YES	less soluble in water during imbibition	Elongation of wild-type soybeans [9]: 0; Particulate material present, Initial Mixing [7]: YES; Particulate material present, O/N Incubation ([7]; 25 mg/ml in ethanol, overnight at room temperature, remixed): YES
